In patent publication US10351546B2, “Pyridin-3-yl acetic acid derivatives as inhibitors of human immunodeficiency virus replication” (priority 2015, dated 2019):
Where two headings read alike, the source gives them in different places.

Tested on: NL-RLuc virus
Assay: Inhibition of HIV replication (NL-RLuc luciferase reporter virus in MT-2 cells)
Type: cell-based
Conditions: Human immunodeficiency virus 1, MT2, 120 h
Method in brief: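 The read-out is Renilla luciferase expressed by replication-competent NL-RLuc (nef partly replaced), measured 5 days after infection of MT-2 cells grown with compound dilutions in 10% FBS RPMI. Median effect equation gives EC50 from ≥2 runs; A ≤100 nM, B 100 nM–1 uM, C >1 uM.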

| SMILES | EC50 (read-out: Activity) | EC50 (read-out: EC50 μM) |
| --- | --- | --- |
| CNCc1nc(C)c([C@H](OC(C)(C)C)C(=O)O)c(N2CCC(C)(C)CC2)c1-c1ccc(OCCc2ccc(F)cc2)cc1 [Example 64, (S)-2-(tert-Butoxy)-2-(4-(4,4-dimethylpiperidin-1-yl)-5-(4-(4-fluorophenethoxy)phenyl)-2-methyl-6-((methylamino)methyl)pyridin-3-yl)acetic acid] | < 0.1 µM | – |
| Cc1nc(CN(C)C)c(-c2ccc(OCCc3ccc(F)cc3)cc2)c(N2CCC(C)(C)CC2)c1[C@H](OC(C)(C)C)C(=O)O [Example 65, (S)-2-(tert-Butoxy)-2-(6-((dimethylamino)methyl)-4-(4,4-dimethylpiperidin-1-yl)-5-(4-(4-fluorophenethoxy)phenyl)-2-methylpyridin-3-yl)acetic acid] | < 0.1 µM | – |
| Cc1nc(CNC(C)C)c(-c2ccc(OCCc3ccc(F)cc3)cc2)c(N2CCC(C)(C)CC2)c1[C@H](OC(C)(C)C)C(=O)O [Example 66, (S)-2-(tert-Butoxy)-2-(4-(4,4-dimethylpiperidin-1-yl)-5-(4-(4-fluorophenethoxy)phenyl)-6-((isopropylamino)methyl)-2-methylpyridin-3-yl)acetic acid] | < 0.1 µM | – |
| Cc1nc(CNCC2CCOCC2)c(-c2ccc(OCCc3ccc(F)cc3)cc2)c(N2CCC(C)(C)CC2)c1[C@H](OC(C)(C)C)C(=O)O [Example 67, (S)-2-(tert-Butoxy)-2-(4-(4,4-dimethylpiperidin-1-yl)-5-(4-(4-fluorophenethoxy)phenyl)-2-methyl-6-((((tetrahydro-2H-pyran-4-yl)methyl)amino)methyl)pyridin-3-yl)acetic acid] | < 0.1 µM | – |
| COCCNCc1nc(C)c([C@H](OC(C)(C)C)C(=O)O)c(N2CCC(C)(C)CC2)c1-c1ccc(OCCc2ccc(F)cc2)cc1 [Example 68, (S)-2-(tert-Butoxy)-2-(4-(4,4-dimethylpiperidin-1-yl)-5-(4-(4-fluorophenethoxy)phenyl)-6-(((2-methoxyethyl)amino)methyl)-2-methylpyridin-3-yl)acetic acid] | < 0.1 µM | – |
| Cc1nc(CNCCO)c(-c2ccc(OCCc3ccc(F)cc3)cc2)c(N2CCC(C)(C)CC2)c1[C@H](OC(C)(C)C)C(=O)O [Example 69, (S)-2-(tert-Butoxy)-2-(4-(4,4-dimethylpiperidin-1-yl)-5-(4-(4-fluorophenethoxy)phenyl)-6-(((2-hydroxyethyl)amino)methyl)-2-methylpyridin-3-yl)acetic acid] | < 0.1 µM | – |
| Cc1nc(CN2CCOCC2)c(-c2ccc(OCCc3ccc(F)cc3)cc2)c(N2CCC(C)(C)CC2)c1[C@H](OC(C)(C)C)C(=O)O [Example 70, (S)-2-(tert-Butoxy)-2-(4-(4,4-dimethylpiperidin-1-yl)-5-(4-(4-fluorophenethoxy)phenyl)-2-methyl-6-(morpholinomethyl)pyridin-3-yl)acetic acid] | < 0.1 µM | – |
| CCNCc1nc(C)c([C@H](OC(C)(C)C)C(=O)O)c(N2CCC(C)(C)CC2)c1-c1ccc(OCCc2ccc(F)cc2)cc1 [Example 71, (S)-2-(tert-Butoxy)-2-(4-(4,4-dimethylpiperidin-1-yl)-6-((ethylamino)methyl)-5-(4-(4-fluorophenethoxy)phenyl)-2-methylpyridin-3-yl)acetic acid] | < 0.1 µM | 0.002 µM |
| Cc1nc(CNCc2ccccc2)c(-c2ccc(OCCc3ccc(F)cc3)cc2)c(N2CCC(C)(C)CC2)c1[C@H](OC(C)(C)C)C(=O)O [Example 72, (S)-2-(6-((Benzylamino)methyl)-4-(4,4-dimethylpiperidin-1-yl)-5-(4-(4-fluorophenethoxy)phenyl)-2-methylpyridin-3-yl)-2-(tert-butoxy)acetic acid] | < 0.1 µM | – |
| Cc1nc(CNc2ccccc2)c(-c2ccc(OCCc3ccc(F)cc3)cc2)c(N2CCC(C)(C)CC2)c1[C@H](OC(C)(C)C)C(=O)O [Example 73, (S)-2-(tert-Butoxy)-2-(4-(4,4-dimethylpiperidin-1-yl)-5-(4-(4-fluorophenethoxy)phenyl)-2-methyl-6-((phenylamino)methyl)pyridin-3-yl)acetic acid] | < 0.1 µM | – |
| Cc1nc(CNCc2ccncc2)c(-c2ccc(OCCc3ccc(F)cc3)cc2)c(N2CCC(C)(C)CC2)c1[C@H](OC(C)(C)C)C(=O)O [Example 74, (S)-2-(tert-Butoxy)-2-(4-(4,4-dimethylpiperidin-1-yl)-5-(4-(4-fluorophenethoxy)phenyl)-2-methyl-6-(((pyridin-4-ylmethyl)amino)methyl)pyridin-3-yl)acetic acid] | < 0.1 µM | – |
| Cc1nc(CN2CCCC2)c(-c2ccc(OCCc3ccc(F)cc3)cc2)c(N2CCC(C)(C)CC2)c1[C@H](OC(C)(C)C)C(=O)O [Example 75, (S)-2-(tert-Butoxy)-2-(4-(4,4-dimethylpiperidin-1-yl)-5-(4-(4-fluorophenethoxy)phenyl)-2-methyl-6-(pyrrolidin-1-ylmethyl)pyridin-3-yl)acetic acid] | < 0.1 µM | – |
| Cc1nc(CNCC2COC2)c(-c2ccc(OCCc3ccc(F)cc3)cc2)c(N2CCC(C)(C)CC2)c1[C@H](OC(C)(C)C)C(=O)O [Example 76, (S)-2-(tert-Butoxy)-2-(4-(4,4-dimethylpiperidin-1-yl)-5-(4-(4-fluorophenethoxy)phenyl)-2-methyl-6-(((oxetan-3-ylmethyl)amino)methyl)pyridin-3-yl)acetic acid] | < 0.1 µM | – |
| Cc1nc(CNC2COC2)c(-c2ccc(OCCc3ccc(F)cc3)cc2)c(N2CCC(C)(C)CC2)c1[C@H](OC(C)(C)C)C(=O)O [Example 77, (S)-2-(tert-Butoxy)-2-(4-(4,4-dimethylpiperidin-1-yl)-5-(4-(4-fluorophenethoxy)phenyl)-2-methyl-6-((oxetan-3-ylamino)methyl)pyridin-3-yl)acetic acid] | < 0.1 µM | 0.067 µM |
| Cc1nc(CNCc2cocn2)c(-c2ccc(OCCc3ccc(F)cc3)cc2)c(N2CCC(C)(C)CC2)c1[C@H](OC(C)(C)C)C(=O)O [Example 78, (S)-2-(tert-Butoxy)-2-(4-(4,4-dimethylpiperidin-1-yl)-5-(4-(4-fluorophenethoxy)phenyl)-2-methyl-6-(((oxazol-4-ylmethyl)amino)methyl)pyridin-3-yl)acetic acid] | < 0.1 µM | – |
| Cc1nc(CN2CCSCC2)c(-c2ccc(OCCc3ccc(F)cc3)cc2)c(N2CCC(C)(C)CC2)c1[C@H](OC(C)(C)C)C(=O)O [Example 79, (S)-2-(tert-Butoxy)-2-(4-(4,4-dimethylpiperidin-1-yl)-5-(4-(4-fluorophenethoxy)phenyl)-2-methyl-6-(thiomorpholinomethyl)pyridin-3-yl)acetic acid] | < 0.1 µM | – |
| Cc1nc(CN2CCCCC2)c(-c2ccc(OCCc3ccc(F)cc3)cc2)c(N2CCC(C)(C)CC2)c1[C@H](OC(C)(C)C)C(=O)O [Example 80, (S)-2-(tert-Butoxy)-2-(4-(4,4-dimethylpiperidin-1-yl)-5-(4-(4-fluorophenethoxy)phenyl)-2-methyl-6-(piperidin-1-ylmethyl)pyridin-3-yl)acetic acid] | < 0.1 µM | – |
| Cc1nc(CN2CCC2)c(-c2ccc(OCCc3ccc(F)cc3)cc2)c(N2CCC(C)(C)CC2)c1[C@H](OC(C)(C)C)C(=O)O [Example 81, (S)-2-(6-(Azetidin-1-ylmethyl)-4-(4,4-dimethylpiperidin-1-yl)-5-(4-(4-fluorophenethoxy)phenyl)-2-methylpyridin-3-yl)-2-(tert-butoxy)acetic acid] | < 0.1 µM | – |
